Measurements taken from patent US6677277B1, “Substituted sulphonyl amino(thio)carbonyl compounds and their use as herbicides” (Bayer Aktiengesellschaft, priority 1996, dated 2004).

What was measured:
Format in all cases: in vivo
weeds [1] = assay: Pre-emergence test; details: cf. Tables A-1 to A-5
Procedure: (§1) Pre-emergence Test Solvent: 5 parts by weight of acetone Emulsifier: 1 part by weight of alkylaryl polyglycol ether To produce a suitable preparation of active compound, 1 part by weight of active compound is mixed with the stated amount of solvent, the stated amount of emulsifier is added and the concentrate is diluted with water to the desired concentration. Seeds of the test plants are sown in normal soil. After about 24 hours, the soil is sprayed with the preparation of the active compound in such a way as to apply the particular amounts of active compound desired per unit area The concentration of the spray liquor is chosen so that the particular amounts of active compound desired are applied in 1000 l of water/ha. After three weeks, the degree of damage to the plants is rated in % damage in comparison to the development of the untreated control. The figures denote: [table]

weeds [2] = assay: Post-emergence test; details: cf. Tables B-1 to B-4
Procedure: as §1, with “Post-emergence” for “Pre-emergence”, “Test plants which have a height” for “Seeds”, “5-15 cm” for “the test plants”, “are” for “are sown in normal soil. After about 24 hours, the soil is”, “area.” for “area”

Matricaria = assay: Pre-emergence test/greenhouse; details: after three weeks
Procedure: as §1

Solanum [3] = assay: Pre-emergence test/greenhouse; details: after three weeks
Procedure: as §1

Maize = assay: Pre-emergence test/greenhouse; details: after three weeks
Procedure: as §1

Alopecurus [4] = assay: Pre-emergence test/greenhouse; details: after three weeks
Procedure: as §1

Lolium [5] = assay: Pre-emergence test/greenhouse; details: after three weeks
Procedure: as §1

Chenopodium = assay: Pre-emergence test/greenhouse; details: after three weeks
Procedure: as §1

Amaranthus = assay: Pre-emergence test/greenhouse; details: after three weeks
Procedure: as §1

Sorghum [6] = assay: Pre-emergence test/greenhouse; details: after three weeks
Procedure: as §1

Stellaria = assay: Post-emergence test/greenhouse; details: after three weeks
Procedure: as §1, with “Post-emergence” for “Pre-emergence”, “Test plants which have a height” for “Seeds”, “5-15 cm” for “the test plants”, “are” for “are sown in normal soil. After about 24 hours, the soil is”, “area.” for “area”

Solanum [7] = assay: Post-emergence test/greenhouse; details: post-emergence, after three weeks
Procedure: as §1, with “Post-emergence” for “Pre-emergence”, “Test plants which have a height” for “Seeds”, “5-15 cm” for “the test plants”, “are” for “are sown in normal soil. After about 24 hours, the soil is”, “area.” for “area”

Alopecurus [8] = assay: Post-emergence test/greenhouse; details: after three weeks
Procedure: as §1, with “Post-emergence” for “Pre-emergence”, “Test plants which have a height” for “Seeds”, “5-15 cm” for “the test plants”, “are” for “are sown in normal soil. After about 24 hours, the soil is”, “area.” for “area”

Lolium [9] = assay: Post-emergence test/greenhouse; details: after three weeks
Procedure: as §1, with “Post-emergence” for “Pre-emergence”, “Test plants which have a height” for “Seeds”, “5-15 cm” for “the test plants”, “are” for “are sown in normal soil. After about 24 hours, the soil is”, “area.” for “area”

Wheat = assay: Post-emergence test/greenhouse; details: 60 g ai./ha, after three weeks
Procedure: as §1, with “Post-emergence” for “Pre-emergence”, “Test plants which have a height” for “Seeds”, “5-15 cm” for “the test plants”, “are” for “are sown in normal soil. After about 24 hours, the soil is”, “area.” for “area”

Ipomoea = assay: Post-emergence test/greenhouse; details: after three weeks
Procedure: as §1, with “Post-emergence” for “Pre-emergence”, “Test plants which have a height” for “Seeds”, “5-15 cm” for “the test plants”, “are” for “are sown in normal soil. After about 24 hours, the soil is”, “area.” for “area”

Sorghum [10] = assay: Post-emergence test/greenhouse; details: post-emergence, after three weeks
Procedure: as §1, with “Post-emergence” for “Pre-emergence”, “Test plants which have a height” for “Seeds”, “5-15 cm” for “the test plants”, “are” for “are sown in normal soil. After about 24 hours, the soil is”, “area.” for “area”

Xanthium = assay: Post-emergence test/greenhouse; details: post-emergence, after three weeks
Procedure: as §1, with “Post-emergence” for “Pre-emergence”, “Test plants which have a height” for “Seeds”, “5-15 cm” for “the test plants”, “are” for “are sown in normal soil. After about 24 hours, the soil is”, “area.” for “area”

Compound | activity against weeds (weeds [1]) | activity against weeds (weeds [2]) | % damage, Matricaria (Matricaria; 125 g ai./ha) [%] | % damage, Solanum (Solanum [3]; 125 g ai./ha) [%] | % damage, Maize (Maize; 125 g ai./ha) [%] | % damage, Alopecurus (Alopecurus [4]; 125 g ai./ha) [%] | % damage, Stellaria (Stellaria; 60 g ai./ha) [%] | % damage, Solanum (Solanum [7]; 60 g ai./ha) [%] | % damage, Alopecurus (Alopecurus [8]; 60 g ai./ha) [%] | % damage, Lolium (Lolium [9]; 60 g ai./ha) [%] | % damage, Wheat (Wheat) [%] | % damage, Ipomoea (Ipomoea; 60 g ai./ha) [%] | % damage, Sorghum (Sorghum [10]; 60 g ai./ha) [%] | % damage, Solanum (Solanum [3]; 60 g ai./ha) [%] | % damage, Maize (Maize; 60 g ai./ha) [%] | % damage, Alopecurus (Alopecurus [4]; 60 g ai./ha) [%] | % damage, Lolium (Lolium [5]; 60 g ai./ha) [%] | % damage, Chenopodium (Chenopodium; 60 g ai./ha) [%] | % damage, Amaranthus (Amaranthus; 60 g ai./ha) [%] | % damage, Sorghum (Sorghum [6]; 60 g ai./ha) [%] | also measured
CCOc1nn(C(=O)NS(=O)(=O)c2c(OC)cccc2SCC)c(=O)n1C [Example 7] | very strong activity | very strong activity | 70 | 100 | 0 | 100 | 100 | 95 | 95 | 95 | 10 | 95 | 95 |  |  |  |  |  |  |  | % damage, Lolium (Lolium [5]; 125 g ai./ha): 100%; % damage, Chenopodium (Chenopodium; 125 g ai./ha): 100%; % damage, Amaranthus (Amaranthus; 125 g ai./ha): 100%; % damage, Sorghum (Sorghum [6]; 125 g ai./ha): 90%
CCc1nn(C(=O)NS(=O)(=O)c2c(OC(F)(F)F)cccc2SC)c(=O)n1C [Example 34] | very strong activity | very strong activity |  |  |  |  | 80 | 95 | 90 | 70 | 20 | 80 | 100 | 95 | 20 | 100 | 80 | 90 | 90 | 90 | % damage, Xanthium (Xanthium; 60 g ai./ha): 95%
COc1cccc(SC)c1S(=O)(=O)NC(=O)n1nc(OC)n(C)c1=O [Example 21] | very strong activity | very strong activity |  |  |  |  | 100 | 100 | 100 | 95 |  | 90 | 100 | 100 | 20 | 100 | 100 | 100 | 100 | 100 | % damage, Matricaria (Matricaria; 60 g ai./ha): 90%
CCOc1nn(C(=O)NS(=O)(=O)c2c(OC(F)(F)F)cccc2SCC)c(=O)n1C [Example 6] | very strong activity | very strong activity | 100 | 100 | 0 | 100 | 95 | 95 | 60 | 50 | 5 | 90 | 70 |  |  |  |  |  |  |  | % damage, Lolium (Lolium [5]; 125 g ai./ha): 100%; % damage, Chenopodium (Chenopodium; 125 g ai./ha): 100%; % damage, Amaranthus (Amaranthus; 125 g ai./ha): 100%; % damage, Sorghum (Sorghum [6]; 125 g ai./ha): 80%; % damage, Xanthium (Xanthium; 60 g ai./ha): 95%
CCSc1cccc(OC)c1S(=O)(=O)NC(=O)n1nc(OC)n(C)c1=O [Example 30] | very strong activity | very strong activity |  |  |  |  |  |  |  |  |  |  |  | 95 | 0 | 100 | 100 | 90 | 95 | 95 | % damage, Matricaria (Matricaria; 60 g ai./ha): 95%; % damage, Stellaria (Stellaria; 125 g ai./ha): 100%; % damage, Solanum (Solanum [7]; 125 g ai./ha): 100%; % damage, Alopecurus (Alopecurus [8]; 125 g ai./ha): 95%; % damage, Lolium (Lolium [9]; 125 g ai./ha): 90%; % damage, Xanthium (Xanthium; 125 g ai./ha): 100%; % damage, Ipomoea (Ipomoea; 125 g ai./ha): 90%; % damage, Sorghum (Sorghum [10]; 125 g ai./ha): 100%
